Consider 20 molecules from paper PMC6882465, “Towards discovery of new leishmanicidal scaffolds able to inhibit Leishmania GSK-3” (Journal of Enzyme Inhibition and Medicinal Chemistry, 2019).

Where two headings read alike, the source gives them in different places.

Assay [1] concerns the target T1, LdGSK-3 (Leishmania donovani, UniProt A6N857). The assay can be described thus: Inhibition of LdGSK-3 with Kinase Glo. The format is biochemical. The note with it: for LdGSK-3 % inhibition: @10 µM; for % inhibition @ 10µM (initial screening on LdGSK3): Table S2; for percentage of inhibition of LdGSK-3: assayed at 10 µM.
Method: Assessment of inhibition of LdGSK-3 with Kinase Glo^TM
The reaction was allowed to proceed for 30 min at 30 °C, then it was incubated at room temperature for another 10 min after addition of Kinase Glo reagents (Promega, Ref. V6712). ATP consumption by LdGSK-3 was measured indirectly through end-point luminescence measurement of each well in a Varioskan Flash microplate reader (Thermo).
Assay [2] deals with T2, hGSK-3β (Homo sapiens, UniProt P49841). The experiment in a line: hGSK-3β inhibition. The format is biochemical.
T2 sequence (P49841 whole entry): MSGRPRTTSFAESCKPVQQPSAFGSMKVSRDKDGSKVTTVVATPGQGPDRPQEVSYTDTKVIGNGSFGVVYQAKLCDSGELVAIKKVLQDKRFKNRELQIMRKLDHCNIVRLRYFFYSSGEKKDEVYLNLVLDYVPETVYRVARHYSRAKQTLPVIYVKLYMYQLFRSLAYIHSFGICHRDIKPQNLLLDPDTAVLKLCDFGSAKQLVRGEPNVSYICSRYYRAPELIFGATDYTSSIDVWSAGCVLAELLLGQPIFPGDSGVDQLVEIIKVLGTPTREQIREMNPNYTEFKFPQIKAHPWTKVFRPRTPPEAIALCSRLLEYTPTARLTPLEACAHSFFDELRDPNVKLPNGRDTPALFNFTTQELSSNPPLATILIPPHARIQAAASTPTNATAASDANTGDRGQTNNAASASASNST
Assay [3] relates to L. infantum promastigotes. The experiment in a line: Leishmanicidal assay on promastigotes (inhibition of MTT reduction). The format is cell-based, Leishmania infantum. The note with it: 72 h. Here is the method:
(§1) Leishmania parasites were resuspended with the corresponding drug concentration at 2 × 10^6 parasites/mL (final concentration) in their respective growth media in 96 microwell plates (200 µL/well). The parasites were allowed to growth for 72 h at 26 °C for promastigotes and 96 h at 32 °C for axenic amastigotes. Afterwards, inhibition of proliferation was measured by the inhibition of MTT reduction by the parasites. […] MTT reduction was allowed to proceed for 2 h at the respective temperature, and the resulting formazan solubilised by addition of 50 µL/well of 10% SDS. Afterwards, the plate was read at 595 nm in a BioRad Microplate-reader, model 680. Samples were made by triplicate and assays were repeated at least twice.

For assay [4], the system named is L. pifanoi axenic amastigotes. The experiment in a line: Leishmanicidal assay on axenic amastigotes (inhibition of MTT reduction). The format is cell-based, Leishmania pifanoi. As to conditions: 96 h, read-out: L. pifanoi amast. ax EC50. Here is the method:
as §1

In assay [5] the test system is peritoneal murine macrophages (PMM). The experiment in a line: Cytotoxicity on peritoneal murine macrophages (MTT). The format is cell-based, Balb/c mice. The note with it: 48 h.
Method: Peritoneal murine macrophages were obtained from 8-week-old Balb/c mice previously elicited by i.p. injection with 1 mL of 10% thioglycollate medium three days prior to extraction. Macrophages were obtained by peritoneal washing (10 mL PBS, 4 °C). After extraction, macrophages were maintained in RPMI 1640-HIFCS at 37 °C and 5% CO2.
For peritoneal macrophages, the cells were seeded in 96 microwell plates at 1 × 10^5 cells/well and incubated (37 °C, 5% CO2) with the drug for 48 h. The toxicity was evaluated by the inhibition of MTT reduction as above.
The target in assay [6] is T2, hGSK-3β. As to conditions: Table S1, cited from earlier work.
In assay [7] the target is T1, LdGSK-3. Also on record: method as in PMID 19445946. The note with it: cited from earlier work.
The mark [8] stands for this setting: Table 2, read-out: LdGSK-3 IC50.
[9] abbreviates: Table S1, read-out: LdGSK-3 IC50.

T1 sequence (A6N857 entry or part of it): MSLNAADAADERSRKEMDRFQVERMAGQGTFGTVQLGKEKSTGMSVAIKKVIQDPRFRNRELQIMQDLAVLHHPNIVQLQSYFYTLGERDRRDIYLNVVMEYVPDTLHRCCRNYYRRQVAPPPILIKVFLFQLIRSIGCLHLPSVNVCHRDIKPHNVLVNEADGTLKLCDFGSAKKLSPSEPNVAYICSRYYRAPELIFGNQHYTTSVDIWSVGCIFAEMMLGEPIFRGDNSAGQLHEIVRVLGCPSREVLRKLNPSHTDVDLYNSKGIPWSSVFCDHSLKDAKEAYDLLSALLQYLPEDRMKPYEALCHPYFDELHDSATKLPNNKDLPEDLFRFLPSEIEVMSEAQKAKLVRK

`COc1cccc(CC(=O)Nc2nc3ccc(OC)cc3s2)c1` [Compound 24] registered a LdGSK-3 % inhibition in assay [1] (Table S1) of less than 20%. The same molecule came in with an IC50 in assay [2] (Table S1, reference not given) of 7.33 ± 0.15 µM. The EC50 in assay [3] (Table S1) and in assay [4] (Table S1) was greater than 50 µM throughout.
`O=c1sn(-c2cccc3ccccc23)c(=O)n1Cc1ccccc1` [Compound 2, tideglusib] had an IC50 in assay [1] of 0.32 ± 0.05 µM. The EC50 in assay [5] (Mus musculus, Macrophage, Table 1) was greater than 50 µM; in assay [3] (Leishmania infantum, Table 1), 17.6 ± 2.3 µM; in assay [4] (Leishmania pifanoi, Table 1), 7.1 ± 1.8 µM.
For the molecule `CC(=O)C1=C(c2c[nH]c3ccccc23)C(=O)NC1=O` [Compound 16], the LdGSK-3 % inhibition in assay [1] (Table S1) is listed as less than 20%. Besides, the values for the EC50 in assay [5] (Table S1), in assay [3] (Table S1) and in assay [4] (Table S1) were greater than 50 µM, greater than 50 µM and 2.5 ± 2.7 µM, respectively. In addition, in assay [6] (ref 8 (supplement)), the IC50 is 4.47 ± 0.35 µM.
Turning to `O=C(Cc1cccc(Cl)c1)Nc1nc2ccc(C(F)(F)F)cc2s1` [Compound 23], in assay [1] (Table S1), the LdGSK-3 % inhibition is on record as less than 20%. The IC50 in assay [2] (Table S1, reference not given) turned out to be 9.75 ± 0.26 µM. The EC50 in assay [3] (Table S1) and in assay [4] (Table S1) was greater than 50 µM in each case.
With `N#Cc1cc(-c2ccnc(Nc3cccc(CN4CCOCC4)c3)n2)ccc1NCCN` [Compound 128], the IC50 stood at 1.7 µM in assay [1] (setting [8]) and 1.32 ± 0.35 µM in assay [2] (Table 2). Besides, the “% inhibition @ 10µM (initial screening on LdGSK3)” value (from here on “% inhibition @ 10µM”) in assay [1] is given as 99.46±0.78%. Moreover, the “percentage of inhibition of LdGSK-3” value in assay [1] was “higher than 50%”.
`COc1ccc(-n2cnc3cc(C(=O)CBr)ccc32)cc1` [Compound 17] showed a LdGSK-3 % inhibition in assay [1] (Table S1) of 35.5%. In addition, the figures for the EC50 in assay [5] (Table S1), in assay [3] (Table S1) and in assay [4] (Table S1) were greater than 25 µM, 3.4 ± 0.5 µM and 4.5 ± 0.2 µM, respectively. Also, the half-inhibitory concentration (IC50) in assay [6] (ref 8 (supplement)) is 0.58 ± 0.07 µM.
Consider `Cc1cc2c(cc1Br)NC(=O)C2=C1Nc2ccccc2C1=NO` [6-bromo-5-methylindirubin-3'-oxime], for which the “LdGSK-3 inhibition (in words)” value in assay [7] is on record as “inhibited”.
For the molecule `O=S(=O)(c1cccc(CSc2nnc(-c3ccc4c(c3)OCO4)o2)c1)N1CCOCC1` [Compound 151], the IC50 in assay [1] (setting [8]) amounted to 2.54 ± 0.48 µM. Besides, in assay [1], the “% inhibition @ 10µM” value stood at 61.89±2.34% and the “percentage of inhibition of LdGSK-3” value is listed as “higher than 50%”. Moreover, the IC50 in assay [2] (Table 2) was 0.02 ± 0.01 µM.
`COc1ccc(CNC(=O)Nc2nc(C)c(C(=O)C(Br)Br)s2)cc1` [Compound 20] displayed a LdGSK-3 % inhibition in assay [1] (Table S1) of less than 20%. In addition, in assay [2] (Table S1, reference not given), the IC50 stood at 6.22 ± 0.2 µM. For the same molecule, the EC50 in assay [3] (Table S1) and in assay [4] (Table S1) was greater than 50 µM each time.
As for `O=C(CCl)c1ccc(Br)s1` [Compound 6], the values for the IC50 in assay [1] (setting [9]) and in assay [6] (ref 4 (supplement)) were 12.5 ± 2.4 µM and 10 µM, respectively. Also, the values for the EC50 in assay [5] (Table S1), in assay [3] (Table S1) and in assay [4] (Table S1) were 6.8 ± 0.4 µM, 0.9 ± 0.1 µM and 1.7 ± 0.1 µM, respectively.
On to `O=C(CBr)C1=C(c2c[nH]c3ccccc23)C(=O)NC1=O` [Compound 15], for which the IC50 in assay [1] (setting [9]) is 17.7 ± 2.7 µM; in assay [6] (ref 8 (supplement)), 0.047 ± 0.007 µM. For the same molecule, the 50% effective concentration (EC50) in assay [3] (Table S1) and in assay [4] (Table S1) was greater than 50 µM each time.
With `O=C(CCl)c1cc(Br)c(Br)s1` [Compound 10], the IC50 in assay [1] (setting [9]) is 3 ± 0.4 µM. Moreover, the EC50 came out at 7.9 ± 0.6 µM in assay [5] (Table S1), 8.6 ± 0.3 µM in assay [3] (Table S1) and 1.2 ± 0.2 µM in assay [4] (Table S1).
Turning to `O=C(CCl)c1ccc(Cl)cc1` [Compound 7], in assay [1] (setting [9]), the IC50 came to 7.5 ± 1.4 µM. Further, the EC50 in assay [5] (Table S1) turned out to be 7.3 ± 1 µM; in assay [3] (Table S1) it was 6.6 ± 0.5 µM; in assay [4] (Table S1), 0.5 ± 0.1 µM.
With `COc1ccc(CNC(=O)Nc2nc(C)c(C(=O)CBr)s2)cc1` [Compound 19], the LdGSK-3 % inhibition in assay [1] (Table S1) is recorded as less than 20%. The molecule also returned an IC50 in assay [2] (Table S1, reference not given) of 9.72 ± 0.57 µM. Also, the EC50 in assay [5] (Table S1) is 32 ± 3.1 µM; in assay [3] (Table S1), greater than 25 µM; in assay [4] (Table S1), 14.4 ± 2.6 µM.
For the molecule `Cc1ccc(S(C)(=O)=O)cc1Nc1nccc(-c2sc(N)nc2-c2ccccc2)n1` [Compound 124], the IC50 in assay [1] (setting [8]) was determined as 6 µM; in assay [2] (Table 2), 0.81 ± 0.34 µM. Also, the “% inhibition @ 10µM” value in assay [1] was 70.59±3.12%. Also, the “percentage of inhibition of LdGSK-3” value in assay [1] was “higher than 50%”.
For the molecule `CCCCCCCC(=O)NNC(=O)c1c(O)c2ccccc2n(C)c1=O` [Compound 12], the LdGSK-3 % inhibition in assay [1] (Table S1) is less than 20%. In addition, the EC50 in assay [3] (Table S1) was greater than 50 µM; in assay [4] (Table S1) it was 20.8 µM. For the same molecule, the IC50 in assay [6] (ref 7 (supplement)) was 8.7 ± 0.4 µM.
On to `CN(C)S(=O)(=O)c1ccc(-c2cnc(N)c(-c3nc4ccc(F)cc4[nH]3)c2)cc1` [Compound 71], for which the IC50 was found to be 3.6 µM in assay [1] (setting [8]) and 1.23 ± 0.14 µM in assay [2] (Table 2). Moreover, the “% inhibition @ 10µM” value in assay [1] was 74.63±1.76%. The “percentage of inhibition of LdGSK-3” value in assay [1] is listed as “higher than 50%”.
Consider `CCOC(=O)c1sc(NC(=O)CCc2cccc(Cl)c2)nc1C` [Compound 21], for which, in assay [1] (Table S1), the LdGSK-3 % inhibition is on record as less than 20%. The IC50 in assay [2] (Table S1, reference not given) worked out at 7.23 ± 0.26 µM. For the same molecule, the EC50 in assay [3] (Table S1) and in assay [4] (Table S1) was greater than 50 µM in each case.
In assay [1] (Table S1), `CCOC(=O)c1sc(NC(=O)CCc2cc(OC)c(OC)c(OC)c2)nc1C` [Compound 22] registered a LdGSK-3 % inhibition of less than 20%. In addition, half-maximal inhibition in assay [2] (Table S1, reference not given) (IC50) required 7.04 ± 0.27 µM. The concentration for a half-maximal effect (EC50) in assay [3] (Table S1) and in assay [4] (Table S1) was greater than 50 µM in each case.
For the molecule `O=C(CCl)c1cc(Cl)sc1Cl` [Compound 8], the IC50 in assay [1] (setting [9]) is 10.3 ± 2 µM; in assay [6] (ref 4 (supplement)), 5 µM. Moreover, the results for the EC50 in assay [5] (Table S1), in assay [3] (Table S1) and in assay [4] (Table S1) were 3.6 ± 0.5 µM, 4.4 ± 0.1 µM and 2.4 ± 0.4 µM, respectively.
